This note sets out measurements from patent US11066392B2, “Inhibitors of indoleamine 2,3-dioxygenase and methods of their use” (BRISTOL-MYERS SQUIBB COMPANY, priority 2017, dated 2021).

The assay has as its target indoleamine 2,3-dioxygenase (IDO) (Homo sapiens, UniProt P14902). Kind of assay: HeLa cell-based indoleamine 2,3-dioxygenase (IDO) assay (kynurenine production, IFNγ-stimulated). Conditions: HeLa cells. The protocol: Assessment of inhibitor activity in HeLa cell-based indoleamine 2,3-dioxygenase (IDO) assay. HeLa (ATCC® CCL-2) cells were obtained from the ATCC® and cultured in Dulbecco's Modified Eagle Medium supplemented with 4.5 g/L glucose, 4.5 […] sodium pyruvate (#10-013-CV, Corning), 2 mM L-alanyl-L-glutamine dipeptide (#35050-061, Gibco), 100U/mL penicillin, 100 μg/mL streptomycin (#SV30010, HyClone) and 10% fetal bovine serum (#SH30071.03 HyClone). Cells were maintained in a humidified incubator at 37° C. in 5% CO2. […] After 24 hours, the media was aspirated and replaced with media containing IFNγ (#285-IF/CF, R&D Systems) at a final concentration of 25 ng/mL. A serial dilution of each test compound was added to the cells in a total volume of 200 μL of culture medium. After a further 48 hour incubation, 170 μL of supernatant was transferred from each well to a fresh 96-well plate. 12.1 μL of 6.1N trichloroacetic acid (#T0699, Sigma-Aldrich) was added to each well and mixed, followed by incubation at 65° C. for 20 minutes to hydrolyze N-formylkynurenine, the product of indoleamine 2,3-dioxygenase, to kynurenine. The reaction mixture was then centrifuged for 10 mins at 500×g to sediment the precipitate. 100 μL of the supernatant was transferred from each well to a fresh 96-well plate. 100 μl of 2% (w/v) p-dimethylaminobenzaldehyde (#15647-7, Sigma-Aldrich) in acetic acid (#A6283, Sigma-Aldrich) was added to each well mixed and incubated at room temperature for 20 mins. Kynurenine concentrations were determined by measuring absorbance at 480 nm and calibrating against an L-kynurenine (#K8625, Sigma-Aldrich) standard curve using a SPECTRAMAX® M2e microplate reader (Molecular Devices). The percentage activity at each inhibitor concentration was determined and IC50 values assessed using nonlinear regression. Activity for compounds described herein is provided in Table 1, wherein potency levels are provided as follows: (Potency: IDO IC50: […])

Setting [1] is: IFNγ 25 ng/mL, 48 hour incubation, read-out: IDO Hela IC50.
Setting [2] is: potency class, read-out: Patent Potency Hela IC50 A < 10 nM, B > 10 nM, C > 100 nM.

Molecules are shown by their SMILES. Like-named read-outs stand apart in the source and are kept apart here.

Chain of indoleamine 2,3-dioxygenase (IDO) (P14902 whole entry): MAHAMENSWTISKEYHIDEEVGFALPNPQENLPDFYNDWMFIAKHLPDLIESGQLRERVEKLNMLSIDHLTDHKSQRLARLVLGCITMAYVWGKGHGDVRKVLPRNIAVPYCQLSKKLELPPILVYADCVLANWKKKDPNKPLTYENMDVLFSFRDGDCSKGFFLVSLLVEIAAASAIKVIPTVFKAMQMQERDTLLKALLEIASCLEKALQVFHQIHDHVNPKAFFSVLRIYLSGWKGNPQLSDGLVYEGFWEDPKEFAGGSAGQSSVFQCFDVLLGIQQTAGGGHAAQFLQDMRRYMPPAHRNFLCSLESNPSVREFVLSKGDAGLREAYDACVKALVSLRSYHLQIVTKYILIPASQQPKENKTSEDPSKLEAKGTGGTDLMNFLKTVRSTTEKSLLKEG

The term IC50 denotes the point on the concentration scale where inhibition reaches its midpoint. For the molecule `CC[C@H](NC(=O)c1ccc(OC)nc1)[C@H]1CC[C@@H](c2cncc(OC)c2)CC1` (single isomer, unassigned) [Example 50a, 6-methoxy-N-(1-(4-(5-methoxypyridin-3-yl)cyclohexyl)propyl)nicotinamide], under setting [1], the concentration for half-maximal inhibition (IC50) was 990 nM.
On to `[2H]C([2H])([2H])Oc1ccc(C(=O)NC(CC)C2CCC(c3ccnc(OC)c3C(F)F)CC2)cn1` (single isomer, unassigned) [Example 66-1, N-(1-((1s,4s)-4-(3-(difluoromethyl)-2-methoxypyridin-4-yl)cyclohexyl)propyl)-6-(methoxy-d3)nicotinamide], for which the IC50 under setting [2] was over 100 nM.
For `CC[C@@H](NC(=O)c1ccc(OC)nc1)[C@H]1CC[C@@H](c2ccnc3ncccc32)CC1` (single isomer, unassigned) [Example 53b, N-(1-(4-(1,8-naphthyridin-4-yl)cyclohexyl)propyl)-6-methoxynicotinamide], the IC50 under setting [1] is 680 nM.
On to `CCC(NC(=O)c1cnc(C)nc1)C1CCC(c2ccnc(OC)c2F)CC1` (stereo not drawn) [Example 23, N-(1-(4-(3-Fluoro-2-methoxypyridin-4-yl)cyclohexyl)propyl)-2-methylpyrimidine-5-carboxamide], for which, under setting [1], the IC50 came out at 110 nM.
The same measure, in the same setting: the figure for `COc1ccc(C(=O)N[C@H](CC2(C)COC2)[C@H]2CC[C@@H](c3ccnc4ccc(C(F)(F)F)cc43)CC2)cn1` (single isomer, unassigned) [Example 17b, 6-Methoxy-N-(2-(3-methyloxetan-3-yl)-1-(4-(6-(trifluoromethyl)quinolin-4-yl)cyclohexyl)ethyl)nicotinamide] is 350 nM.
In the case of `COCCOCC(NC(=O)c1ccc(OC)nc1)C1CCC(c2ccnc3ccc(F)cc23)CC1` (single isomer, unassigned) [Example 15a, N-(1-((1s,4s)-4-(6-Fluoroquinolin-4-yl)cyclohexyl)-2-(2-methoxyethoxy)ethyl)-6-methoxynicotinamide], the IC50 under setting [2] was under 10 nM.
Still for that read-out and setting: the result for `COc1ccc(C(=O)N[C@H](CC2(C)COC2)[C@H]2CC[C@@H](c3ccnc4ccc(C(F)(F)F)cc43)CC2)cn1` (single isomer, unassigned) [Example 17d, 6-Methoxy-N-(2-(3-methyloxetan-3-yl)-1-(4-(6-(trifluoromethyl)quinolin-4-yl)cyclohexyl)ethyl)nicotinamide] reads over 100 nM.
In the case of `CCC(NC(=O)c1ccc(OC)nc1)C1CCC(c2cccc(C)n2)CC1` (single isomer, unassigned) [Example 46a, 6-methoxy-N-(1-(4-(6-methylpyridin-2-yl)cyclohexyl)propyl)nicotinamide], the IC50 under setting [1] is 330 nM.
As to `CCC(NC(=O)c1ccc(OC)nc1)C1CCC(c2ccnc(F)c2C)CC1` (single isomer, unassigned) [Example 27b, N-(1-((1s,4s)-4-(2-Fluoro-3-methylpyridin-4-yl)cyclohexyl)propyl)-6-methoxynicotinamide], the concentration for half-maximal inhibition (IC50) under setting [2] is under 10 nM.
On the same count and under the same terms, the result for `CC[C@@H](NC(=O)c1ccc(OC)nc1)[C@H]1CC[C@@H](c2ccnc3ncccc32)CC1` (single isomer, unassigned) [Example 53c, N-(1-(4-(1,8-naphthyridin-4-yl)cyclohexyl)propyl)-6-methoxynicotinamide] reads over 100 nM.
With `CCC(NC(=O)c1ccc(OC)nc1)C1CCC(c2ccnc(OC(F)F)c2)CC1` (single isomer, unassigned) [Example 30b, N-(1-(4-(2-(Difluoromethoxy)pyridin-4-yl)cyclohexyl)propyl)-6-methoxynicotinamide], the IC50 under setting [1] was 20 nM.
Take `COCC(NC(=O)c1ccc(OC)nc1)C1CCC(c2ccnc3ccc(F)cc23)CC1` (stereo not drawn) [Example 14a, N-(1-((1s,4s)-4-(6-Fluoroquinolin-4-yl)cyclohexyl)-2-methoxyethyl)-6-methoxynicotinamide]: the IC50 under setting [2] is under 10 nM.
As to `CCC(NC(=O)c1ccc(=O)[nH]c1)[C@H]1CC[C@@H](c2ccnc(OC)c2C(F)F)CC1` (stereo partly drawn) [Example 63-2, N-(1-((1s,4s)-4-(3-(difluoromethyl)-2-methoxypyridin-4-yl)cyclohexyl)propyl)-6-oxo-1,6-dihydropyridine-3-carboxamide], the IC50 under setting [2] is over 10 nM.
On the same count and under the same terms, the figure for `CCC(NC(=O)c1ccnc(N2CCOCC2)c1)C1CCC(c2ccnc(OC)c2C(F)F)CC1` (single isomer, unassigned) [Example 26a, N-(1-((1s,4s)-4-(3-(Difluoromethyl)-2-methoxypyridin-4-yl)cyclohexyl)propyl)-2-morpholinoisonicotinamide] is over 100 nM.
Still for that read-out and setting: the figure for `CCC(NC(=O)c1ccc(OC)nc1)C1CCC(c2ccnc3ccc(C(F)(F)F)cc23)CC1` (single isomer, unassigned) [Example 11b, 6-Methoxy-N-(1-((1s,4s)-4-(6-(trifluoromethyl)quinolin-4-yl)cyclohexyl)propyl)nicotinamide] is under 10 nM; for `CCC(NC(=O)c1ccc(OC)nc1)[C@H]1CC[C@@H](c2cc[nH]c(=O)c2C(F)F)CC1` (stereo partly drawn) [Example 64-2, N-(1-((1s,4s)-4-(3-(difluoromethyl)-2-oxo-1,2-dihydropyridin-4-yl)cyclohexyl)propyl)-6-methoxynicotinamide] it is over 100 nM; for `CC[C@@H](NC(=O)c1ccc(OC)nc1)[C@H]1CC[C@@H](c2ccn(C)c(=O)c2)CC1` (single isomer, unassigned) [Example 31d, 6-Methoxy-N-(1-(4-(1-methyl-2-oxo-1,2-dihydropyridin-4-yl)cyclohexyl)propyl)nicotinamide] it is over 100 nM.
With `CC[C@H](NC(=O)c1ccc(OC)nc1)[C@H]1CC[C@@H](c2cncc(OC)c2)CC1` (single isomer, unassigned) [Example 50b, 6-methoxy-N-(1-(4-(5-methoxypyridin-3-yl)cyclohexyl)propyl)nicotinamide], the IC50 under setting [1] amounted to 250 nM.
On the same count and under the same terms, the figure for `COc1ccc(C(=O)N[C@H](CC2(C)COC2)[C@H]2CC[C@@H](c3ccnc4ccc(C(F)(F)F)cc43)CC2)cn1` (single isomer, unassigned) [Example 17a, 6-Methoxy-N-(2-(3-methyloxetan-3-yl)-1-(4-(6-(trifluoromethyl)quinolin-4-yl)cyclohexyl)ethyl)nicotinamide] is 30 nM; for `CCC(NC(=O)c1ccc(OC)nc1)[C@H]1CC[C@@H](c2cc(C)ccn2)CC1` (single isomer, unassigned) [Example 45a, (±)-6-methoxy-N-(1-(4-(4-methylpyridin-2-yl)cyclohexyl)propyl)nicotinamide] it is 220 nM; for `CCC(NC(=O)c1ccc(OC)nc1)C1CCC(c2cccc(OC(F)F)n2)CC1` (single isomer, unassigned) [Example 48c, N-(1-(4-(6-(difluoromethoxy)pyridin-2-yl)cyclohexyl)propyl)-6-methoxynicotinamide] it is 270 nM.
As for `CCC(NC(=O)c1ccc(OC)nc1)C1CCC(c2cccc(C(F)(F)F)n2)CC1` (single isomer, unassigned) [Example 47b, 6-methoxy-N-(1-(4-(6-(trifluoromethyl)pyridin-2-yl)cyclohexyl)propyl)nicotinamide], under setting [2], the IC50 was over 100 nM.
Regarding `CC[C@H](NC(=O)c1cnc(C)nc1)[C@H]1CC[C@H](c2ccnc3c(F)cccc32)CC1` (single isomer, unassigned) [Example 61c, N-(1-(4-(8-fluoroquinolin-4-yl)cyclohexyl)propyl)-2-methylpyrimidine-5-carboxamide], the IC50 under setting [2] was over 100 nM.
As to `COCC(NC(=O)c1ccc(OC)nc1)C1CCC(c2ccnc3ccc(C(F)(F)F)cc23)CC1` (single isomer, unassigned) [Example 12a, 6-Methoxy-N-(2-methoxy-1-((1s,4s)-4-(6-(trifluoromethyl)quinolin-4-yl)cyclohexyl)ethyl)nicotinamide], under setting [1], the IC50 came out at 80 nM.
Take `CC[C@@H](NC(=O)c1ccc(OC)nc1)[C@H]1CC[C@@H](c2ccnc3ncccc32)CC1` (single isomer, unassigned) [Example 53a, N-(1-(4-(1,8-naphthyridin-4-yl)cyclohexyl)propyl)-6-methoxynicotinamide]: the IC50 under setting [1] came to 10 nM.
Regarding `CCC(NC(=O)c1ccc(OC)nc1)C1CCC(c2cccc(OC(F)F)n2)CC1` (single isomer, unassigned) [Example 48b, N-(1-(4-(6-(difluoromethoxy)pyridin-2-yl)cyclohexyl)propyl)-6-methoxynicotinamide], the IC50 under setting [2] is over 100 nM.
For the molecule `CCC(NC(=O)c1ccc(OC)nc1)C1CCC(c2cccc(=O)n2C)CC1` (single isomer, unassigned) [Example 32b, 6-Methoxy-N-(1-(4-(1-methyl-6-oxo-1,6-dihydropyridin-2-yl)cyclohexyl)propyl)nicotinamide], the IC50 under setting [1] came to 80 nM.
